Measurements reported in patent EP3892734B1, “SCREENING METHODS AND THERAPEUTIC APPLICATIONS BASED ON BACTERIAL MOTILITY INHIBITION” (Ludwig-Maximilians-Universität München, priority 2020, dated 2021).
In brackets after ≈: the same amount, converted by molar mass. Several values for one entry are separate records, joined by “and”; a condition that tells them apart may be missing. Equal values may be shown once. Entries after “also recorded” stand apart in the source; their conditions may differ. Read-outs that look alike come from different tables or passages of the source.

Experiments:
[1] = test system: H. pylori flaA-luciferase reporter strain N6; test: microbe, parasite or virus in culture; type: cell-based, Helicobacter pylori; conditions: for inhibitory activity in luciferase reporter assay: result in words; for Weak activity (% of non-inhibited control): flaA-luciferase reporter strain N6, IC50 not determined
Text: The H. pylori flaA promoter was fused with a luciferase operon (luxAB) from Vibrio harveyi in a H. pylori suicide plasmid (Niehus, Ye, Suerbaum, & Josenhans, 2002). The flaA reporter fusion was recombined into the H. pylori chromosome and the resulting strain tested to be strongly luminescence positive. The reporter strain (N6 flaA-lux4B) activated luminescence to about 40,000 to 60,000 counts per second using luciferase substrate at an OD600 of 0.8 (mid-log phase) in liquid culture. The negative control value of a non-reporter strain or reporter strain without luminescence substrate was close to zero. […] The Z-Factor (Zhang et al., 1999) determined for the assay with various bacterial inhibitors measured in quadruplicates or triplicates was routinely between 0.6 and 0.7, with a confidence interval of 95%.
H. pylori luminescence reporter strains were passaged on blood agar plates less than 22 hours prior to the start of the experiment. The passage number for these assays was not higher than five to preserve the strain's properties and genetic stability. Luciferase reaction buffer was prepared as follows: 50 mM disodium phosphate (Na2HPO4) and 2% BSA were dissolved in HPLC water, filter sterilized, aliquoted and frozen at - 20°C.
Bacteria were harvested in brain-heart infusion medium (BHI, 3% yeast extract with 5% horse serum added) and adjusted to an OD600 of 0.8 at room temperature. 50 µl of the bacterial suspension were added per well of a 96 well plate (non-binding, Greiner Bio-One 655901). 2 µl of each of the test compounds (provided as a 10 mM DMSO solution) were added to the sample wells. The same amount of pure, diluted DMSO was added to the control wells for a concentration of a maximum of 4% DMSO per well, since higher concentrations will interfere with metabolic functions of H. pylori and cause false negative results. The microwell plate was incubated inside a sterile sealed PM Gas Bag (BIOLOG #3032) together with a CampyGen Compact pack (Oxoid) to generate microaerobic conditions at 37°C and with shaking at 175 rpm for 4 h.
Shortly before taking the measurement, the luciferase substrate was prepared by diluting the luminescence substrate decanal (10% stock, Sigma Aldrich) at a 1 :2,000 dilution in luciferase reaction buffer. 60 µl of the substrate were added per well of a white 96 microwell plate (Thermo Scientific #236105) without the lid.
For the final luciferase measurement, 10 µl of bacterial solution were transferred with the epMotion 96 (Eppendorf) simultaneously to the wells containing the luciferase substrate and incubated on a microwell plate shaker for 10 s to lyse the bacteria. The measurements were recorded with a Perkin Elmer Victor 3/WNallac 1420 plate reader (luminometry, measurement time: 0.5 sec) and integrated to counts per sec. For the background measurement, 10 µl sterile medium containing 4% DMSO was added to the wells. For each measurement, at least four luciferase reporter positive control wells (without inhibitory compound) and four negative control wells (background without bacteria) were run on the same day and under the same assay conditions in parallel.

H. pylori = test: therapeutic treatment in chronic H. pylori mouse infection model (cfu counts, cagL PCR); type: in vivo, C57B/L6 mice
Experimental: 6-8 weeks old specific pathogen-free C57B/L6 mice were obtained from Charles River Laboratories. They were acclimatized to the new surroundings for one week before starting the assays. For the whole duration of the experiment, mice had access to sterile chow and sterile water ad libitum. In week one of the experiment, H. pylori was administered at 3×10^8 bacteria per mouse per inoculum (100 µl) on two days with one day of break in between. The proof-of-principle treatment was started two weeks after the end of the inoculation week, assuming a stable infection at this time point. The mice were treated in separate groups (8-14 animals per group), as outlined in the results, with compound(s), antibiotic (metronidazole at 14.3 mg/kg/day), a combination of both antibiotic and compound (for concentrations, see Results), or mock-treated once daily over seven consecutive days by intra-gastric gavage. After the treatment week, the mice were kept for another two weeks under normal housing and feeding conditions with sterilized chow and sterile water ad libitum. At the end of the assay period (week seven), the mice were necropsied by cervical dislocation under CO2 anesthesia. The animal experiments were authorized under German federal law by the LAVES (Lower Saxony Government Authority).
Then, BL2 was further tested for therapeutic efficacy in a mouse model of chronic H. pylori infection (Fig. 5). Six groups of mice (10 mice per group in each of the four infected and/or treated groups, and six mice in both of the control groups) were established in this mouse treatment trial. For the treatment groups, mice were infected in week one (using ca. 3×10^8 bacteria per animal; Methods), and the chronic infection was manifested for two more weeks. The once-daily treatment (intragastric gavage) started in week four on seven consecutive days. For the treatment groups, three H. pylori-infected groups were evaluated in parallel. One dose of treatment was given daily.
Group one was treated with metronidazole (14.3 mg/kg/day) only, an established anti-H. pylori antibiotic. The antibiotic concentration corresponds to concentrations routinely used in human treatment. Group two was treated with metronidazole (dosed at 14.3 mg/kg/day) and BL2 (10 mg/kg/day) in combination, and group three received BL2 (10 mg/kg/day) only. In addition, one infected and mock-treated group was kept as positive control, and two mock-infected groups were set aside, one for administering BL2 only (10 mg/kg/day; microbiota compound control) and one which was mock-infected and mock-treated (microbiota null control).
The read-out of successful treatment was the reduction of colony-forming units (cfus) of bacteria in infected and treated mice, over infected, non-treated, mice, at the end of the experiment. […] All mice in the infected positive control group were colonized (both cfu counts and PCR-positive), although the cfu counts in three positive animals were rather low.

H. pylori N6 = test: vitality / metabolic (respiratory inhibition) counter-screen; type: cell-based, Helicobacter pylori; conditions: > 100% indicates no inhibition
[2] = Helicobacter pylori, H. pylori flaA-luciferase reporter strain N6, Table 6
[3] = H. pylori flaA-luciferase reporter strain N6, Table 6

Compound	IC50 [1, 2] [µg/mL]	inhibitory activity in luciferase reporter assay [1]	further results
Cc1ccc(-n2c(=O)c(Br)c(CSC(=N)N)n2C)cc1 [DJ-5, (4-bromo-2-methyl-5-oxo-1-(p-tolyl)-2,5-dihydro-1H-pyrazol-3-yl)methyl carbamimidothioate]	< 4.5	–	–
Cn1c(CSC(=N)N)c(Br)c(=O)n1-c1ccc(Cl)cc1 [DJ-9, (4-bromo-1-(4'-chlorophenyl)-2-methyl-5-oxo-2,5-dihydro-1H-pyrazol-3-vl)methyl carbamimidothioate]	< 4.5	–	–
Cn1c(CS)c(Br)c(=O)n1-c1ccccc1 [DJ-2, 4-bromo-5-(mercaptomethyl)-1-methyl-2-phenyl-1,2-dihydro-3H-pyrazol-3-one]	–	–	IC50 [1, 3]: 0.44 µg/mL (≈ 1.47 µM)
Cn1c(CSC(=N)N)c(Br)c(=O)n1-c1ccc(C(F)(F)F)cc1 [DJ-10, (4-bromo-2-methyl-5-oxo-1-(4'-(trifluoromethyl)phenyl)-2,5-dihvdro-1H-pyrazol-3-yl)methyl carbamimidothioate]	10.8 (≈ 26.5 µM)	–	–
C=C(C)[C@H]1Cc2c(ccc3c2O[C@@H]2COc4cc(OC)c(OC)cc4[C@@H]2C3=O)O1 [rotenone, reference compound]	–	inhibited the luminescence reporter activity	–
CC1(C)S[C@@H]2[C@H](NC(=O)[C@H](N)c3ccccc3)C(=O)N2[C@H]1C(=O)O [ampicillin, reference compound]	–	did not alter the readings in the luciferase reporter assay	–
CCn1c(CSC(=N)N)c(Br)c(=O)n1-c1ccccc1 [DJ-11]	10.6 (≈ 29.7 µM)	–	–
Cn1c(CSC(=N)N)c(Br)c(=O)n1-c1ccc(-c2ccccc2)cc1 [DJ-8, (1-([1',1"-biphenyl]-4'-yl)-4-bromo-2-methyl-5-oxo-2,5-dihydro-1H-pyrazol-3-yl)methyl carbamimidothioate]	< 4.5	–	–
Cc1ccc(-n2c(=O)c(Br)c(CSCc3c(Br)c(=O)n(-c4ccc(C)cc4)n3C)n2C)cc1 [DJ-14, 5,5'-(thiobis(methylene))bis(4-bromo-1-methyl-2-(p-tolyl)-1,2-dihydro-3H-pyrazol-3-one)]	–	detectable yet weaker inhibitory activity	Weak activity (% of non-inhibited control) [1]: Weak activity (+/- 90 % of control) (IC50 not determined)
CCn1c(CS)c(Br)c(=O)n1-c1ccccc1 [DJ-12]	< 4.5	–	–
Cc1ncc([N+](=O)[O-])n1CCO [metronidazole, reference compound]	–	–	reduction of colony-forming units (cfus) / bacterial loads in stomach (H. pylori; BL2 10 mg/kg/day, metronidazole 14.3 mg/kg/day, once daily, 7 days, intragastric gavage, versus infected control): significantly reduced bacterial counts; also recorded: left no bacterial counts; gene-specific (cagL) PCR signal in stomach homogenates (H. pylori; two weeks post-treatment): strong residual bacterial load; also recorded: all mice still had detectable specific bacterial (PCR) signal; also recorded: still readily detectable by PCR
carbonyl cyanide m-chlorophenyl hydrazine [CCCP, reference compound]	–	inhibited the luminescence reporter activity	–
Cn1c(CSC(=N)N)c(Br)c(=O)n1-c1ccccc1 [DJ-1, (4-bromo-2-methyl-5-oxo-1-phenyl-2,5-dihydro-1H-pyrazol-3-yl)methyl carbamimidothioate]	< 4.5	–	Luciferase assay (% of control) ([1]; H. pylori screen): 1,4 % of control; IC50 ([1]; Helicobacter pylori, read-out: IC50 (luciferase assay), luciferase flagellar reporter assay, Table 3): 3.05 µg/mL and 10.3 µM; Metabolic assay (% of control) (H. pylori N6): 107,7 % of control
CC(C)c1ccc(-n2c(=O)c(Br)c(CSC(=N)N)n2C)cc1 [DJ-7, (4-bromo-1-(4'-isopropylphenyl)-2-methyl-5-oxo-2,5-dihydro-1H-pyrazol-3-vl)methyl carbamimidothioate]	< 4.5	–	–
Cn1c(CSCCO)c(Br)c(=O)n1-c1ccccc1 [DJ-3, 4-bromo-5-(((2-hydroxyethyl)thio)methyl)-1-methyl-2-phenyl-1,2-dihydro-3H-pyrazol-3-one]	–	No inhibitory activity was detectable	IC50 [1, 3]: No IC50
Cn1c(CSC(=N)N)c(Br)c(=O)n1-c1ccccn1 [DJ-13]	–	detectable yet weaker inhibitory activity	Weak activity (% of non-inhibited control) [1]: Weak activity (+/- 50 % of non-inhibited control) (IC50 not determined)
Cc1cc(C)cc(-n2c(=O)c(Br)c(CSC(=N)N)n2C)c1 [DJ-6, (4-bromo-1-(3',5'-dimethylphenyl)-2-methyl-5-oxo-2,5-dihydro-1H-pyrazol-3-yl)methyl carbamimidothioate]	< 4.5	–	–
Cn1c(CN)c(Br)c(=O)n1-c1ccccc1 [DJ-4, 5-(aminomethyl)-4-bromo-1-methyl-2-phenyl-1,2-dihydro-3H-pyrazol-3-one]	–	No inhibitory activity was detectable	IC50 [1, 3]: No IC50
